From patent US9000016B2, “1,3,4-Oxadiazoles-2-thio derivatives as sphingosine-1 phosphate receptors modulators” (Allergan, Inc., priority 2012, dated 2015)
pEC50: −log10 of the molar value.

Biological target: T1, human S1P1 receptor (Homo sapiens, UniProt P21453)
T1 construct: expressed in transfected cells; membranes used
Assay: GTP γ35S binding assay for S1P1 activity
Format: biochemical
Settings: membranes of cells stably expressing the S1P1 receptor, agonist potency
Procedure: Compounds were synthesized and tested for S1P1 activity using the GTP γ^35S binding assay. These compounds may be assessed for their ability to activate or block activation of the human S1P1 receptor in cells stably expressing the S1P1 receptor.
GTP y^35S binding was measured in the medium containing (mM) HEPES 25, pH 7.4, MgCl210, NaCI 100, dithiothreitol 0.5, digitonin 0.003%, 0.2 nM GTP y^35S, and 5 µg membrane protein in a volume of 150 μl. Test compounds were included in the concentration range from 0.08 to 5,000 nM unless indicated otherwise. Membranes were incubated with 100 μM 5′-adenylylimidodiphosphate for 30 min, and subsequently with 10 μM GDP for 10 min on ice. Drug solutions and membrane were mixed, and then reactions were initiated by adding GTP y^35S and continued for 30 min at 25° C. Reaction mixtures were filtered over Whatman GF/B filters under vacuum, and washed three times with 3 mL of ice-cold buffer (HEPES 25, pH7.4, MgCl210 and NaCI 100). Filters were dried and mixed with scintillant, and counted for ^35S activity using a β-counter. Agonist-induced GTP y^35S binding was obtained by subtracting that in the absence of agonist. Binding data were analyzed using a non-linear regression method. In case of antagonist assay, the reaction mixture contained 10 nM S1 P1 in the presence of test antagonist at concentrations ranging from 0.08 to 5000 nM.

T1 sequence (P21453 whole entry): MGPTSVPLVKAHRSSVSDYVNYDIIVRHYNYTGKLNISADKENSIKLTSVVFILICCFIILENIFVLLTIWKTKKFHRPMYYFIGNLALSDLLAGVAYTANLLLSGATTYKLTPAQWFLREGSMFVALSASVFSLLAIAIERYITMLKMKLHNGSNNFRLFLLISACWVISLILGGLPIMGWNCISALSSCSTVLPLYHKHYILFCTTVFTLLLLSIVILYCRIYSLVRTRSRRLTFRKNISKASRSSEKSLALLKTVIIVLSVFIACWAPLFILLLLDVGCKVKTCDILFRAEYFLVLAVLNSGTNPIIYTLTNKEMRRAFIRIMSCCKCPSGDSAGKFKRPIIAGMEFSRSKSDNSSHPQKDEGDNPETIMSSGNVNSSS

Row | SMILES | pEC50
1 | Cc1ccc(-c2nnc(SC(C)c3ccc(CNCCC(=O)O)cc3)o2)cc1C (centres unmarked) [Compound 3, 3-{[4-(1-{[5-(3,4-Dimethylphenyl)-1,3,4-oxadiazol-2-yl]thio}ethyl)benzyl]amino}propanoic acid] | 8.08
2 | Cc1ccc(-c2nnc(SC(C)c3ccc(CNCCCP(=O)(O)O)cc3)o2)cc1C (centres unmarked) [Compound 1, (3-{[4-(1-{[5-(3,4-Dimethylphenyl)-1,3,4-oxadiazol-2-yl]thio}ethyl)benzyl]amino}propyl)phosphonic acid] | 7.09
